Laboratory results as given in ChEMBL document CHEMBL5257142, “Targeted Degradation of KRASG12D as Potential Therapy in Cancer” (ACS Med Chem Lett, 2023).

Tested on: GTPase KRas (Homo sapiens), P01116 [G12D]
Experiment: Protac activity at VHL/KRAS G12D in human ASPC1 cells assessed as induction of KRAS G12D protein degradation at 1 uM incubated for 24 hrs by luminescence based analysis relative to control
Assay type: cell-based

Sequence of GTPase KRas (Homo sapiens), P01116 [G12D] (P01116 whole entry G12D, looked up): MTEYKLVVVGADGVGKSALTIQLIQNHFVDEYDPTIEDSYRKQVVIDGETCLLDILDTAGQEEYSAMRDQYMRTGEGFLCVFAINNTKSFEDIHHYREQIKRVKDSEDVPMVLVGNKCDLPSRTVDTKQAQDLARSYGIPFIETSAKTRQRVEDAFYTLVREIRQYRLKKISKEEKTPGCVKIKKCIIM

Structure (SMILES) | Activity [%]
Cc1cc(N)nc(-c2c(Cl)cc3c(N4CC5CCC(C4)N5)nc(OC[C@@H]4CCCN4CCCCCCCN4CCC(c5cc(F)cc6c5CN(C5CCC(=O)NC5=O)C6=O)CC4)nc3c2F)c1C(F)(F)F (stereo partly specified) | -22.9
Cc1ncsc1-c1ccc([C@H](C)NC(=O)[C@@H]2C[C@@H](O)CN2C(=O)[C@@H](NC(=O)CCCCN2CCC[C@H]2COc2nc(N3CC4CCC(C3)N4)c3cc(Cl)c(-c4ccc(F)c5sc(N)nc45)c(F)c3n2)C(C)(C)C)cc1 | 38.1
Cc1cc(N)nc(-c2c(Cl)cc3c(N4CC5CCC(C4)N5)nc(OC[C@@H]4CCCN4CCCOCCC(=O)N[C@H](C(=O)N4C[C@H](O)C[C@H]4C(=O)NCc4ccc(-c5scnc5C)cc4)C(C)(C)C)nc3c2F)c1C(F)(F)F | -0.69
Cc1cc(N)nc(-c2c(Cl)cc3c(N4CC5CCC(C4)N5)nc(OC[C@@H]4CCCN4CCCOCCCOc4cc(-c5scnc5C)ccc4CNC(=O)[C@@H]4C[C@@H](O)CN4C(=O)[C@H](NC(=O)C4(F)CC4)C(C)(C)C)nc3c2F)c1C(F)(F)F | -5.46
Cc1ncsc1-c1ccc([C@H](C)NC(=O)[C@@H]2C[C@@H](O)CN2C(=O)[C@@H](NC(=O)CCOCCCN2CCC[C@H]2COc2nc(N3CC4CCC(C3)N4)c3cc(Cl)c(-c4ccc(F)c5sc(N)nc45)c(F)c3n2)C(C)(C)C)cc1 | 51.3
Cc1cc(N)nc(-c2c(Cl)cc3c(N4CC5CCC(C4)N5)nc(OC[C@@H]4CCCN4CCCOCCC(=O)N[C@H](C(=O)N4C[C@H](O)C[C@H]4C(=O)N[C@@H](C)c4ccc(-c5scnc5C)cc4)C(C)(C)C)nc3c2F)c1C(F)(F)F | 29.3
